Results on 3 compounds are retold here after patent publication US10968248B2, “Trinucleotide mRNA cap analogs” (c/o Arcturus Therapeutics, Inc., priority 2016, dated 2021).

In one test the target is T7 RNA polymerase (Escherichia phage T7, UniProt P00573). Particulars: 2 hrs at 37 C, concluded from protein expression in mice. Here is the method:
For ARCA and ARC CAP1 mRNAs, in vitro transcription was performed using the standard protocol (see Table, below). All of components were mixed, and T7 RNA polymerase (E2040 from NEB) was added in the reaction mixture. The transcription reaction was incubated for 2 hrs at 37 C. After 2 hrs of reaction time, DNASEI (NEB) and buffer were added to the transcription reaction and incubated for 15 mins at 37 C. The crude of reaction mix was purified using RNA purification kit (Macherey-Nagel).

Test [1] relates to rabbit reticulocyte lysate system. Particulars: mRNA transcribed with the cap analog; cited from earlier work.
A short description of test [2]: Protein expression in plasma (ELISA) after i.v. delivery of m^7G(5′)p3-RNA to mice. The class given is in vivo. For orientation: ELISA stands for enzyme-linked immunosorbent assay.
The conditions of test [3]: in vitro transcription initiated with the cap analog; cited from earlier work.

Chain of T7 RNA polymerase (P00573 whole entry): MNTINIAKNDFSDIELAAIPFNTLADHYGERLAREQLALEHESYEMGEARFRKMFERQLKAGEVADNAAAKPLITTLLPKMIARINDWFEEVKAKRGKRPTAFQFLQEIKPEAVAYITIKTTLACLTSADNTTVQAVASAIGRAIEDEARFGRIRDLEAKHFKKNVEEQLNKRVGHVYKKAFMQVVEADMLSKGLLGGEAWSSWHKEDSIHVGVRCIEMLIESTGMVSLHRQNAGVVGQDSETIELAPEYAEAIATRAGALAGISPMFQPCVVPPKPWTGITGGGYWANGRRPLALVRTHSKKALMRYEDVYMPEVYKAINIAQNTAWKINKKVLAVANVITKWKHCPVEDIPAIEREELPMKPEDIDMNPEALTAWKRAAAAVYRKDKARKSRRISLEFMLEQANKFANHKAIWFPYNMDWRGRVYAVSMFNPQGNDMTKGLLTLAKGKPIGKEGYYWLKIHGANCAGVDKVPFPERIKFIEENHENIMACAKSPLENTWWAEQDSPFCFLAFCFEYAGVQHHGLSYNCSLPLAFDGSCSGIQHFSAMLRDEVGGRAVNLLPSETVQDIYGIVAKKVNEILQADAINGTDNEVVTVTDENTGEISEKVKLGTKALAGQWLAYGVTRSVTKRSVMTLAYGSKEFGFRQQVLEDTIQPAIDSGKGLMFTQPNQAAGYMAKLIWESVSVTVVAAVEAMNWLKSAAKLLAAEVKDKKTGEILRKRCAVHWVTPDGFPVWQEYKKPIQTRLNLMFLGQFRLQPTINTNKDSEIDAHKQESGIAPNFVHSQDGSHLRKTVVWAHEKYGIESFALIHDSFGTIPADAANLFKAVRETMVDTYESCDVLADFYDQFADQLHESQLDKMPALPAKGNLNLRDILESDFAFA

In the case of `CO[C@@H]1[C@H](OP(=O)(O)OC[C@H]2O[C@@H](n3cnc4c(=O)[nH]c(N)nc43)[C@H](O)[C@@H]2O)[C@@H](COP(=O)(O)OP(=O)(O)OP(=O)([O-])OC[C@H]2O[C@@H]([n+]3cn(C)c4c(=O)[nH]c(N)nc43)[C@H](O)[C@@H]2O)O[C@H]1n1cnc2c(N)ncnc21` [ARC CAP1, m^7G(5′)p3AmpG], on T7 RNA polymerase, the efficiency of transcription result is “substantially improved compared to dinucleotide ARCA”. In test [1], the “translational efficiency (rank order of cap structures)” value was “greatest”. The “efficiency of translation of capped RNA” value in test [2] (compared with enzymatically (vaccinia) capped RNA) is reported as “just as efficient translated as enzymatically capped RNA”. Moreover, the “amount of protein expression” value in test [2] (m^7G(5′)p3-RNA 0.3 mg/kg i.v., male mice, plasma 6 hours post dose, ELISA, FIG. 16) was “greater than ARCA”.
As for `CO[C@H]1[C@@H](O)[C@H](n2c[n+](C)c3c(=O)[nH]c(N)nc32)O[C@@H]1COP(=O)(O)OP(=O)(O)OP(=O)(O)OC[C@H]1O[C@@H](n2cnc3c(=O)[nH]c(N)nc32)[C@H](O)[C@@H]1O` [ARCA, 3′-OMe-m^7G(5′)p3G], the “caps oriented in the reverse direction / reverse-orientation transcript” value in test [3] was “without reversal”.
Turning to `Cn1c[n+]([C@@H]2O[C@H](COP(=O)(O)OP(=O)([O-])OP(=O)(O)OC[C@H]3O[C@@H](n4cnc5c(=O)[nH]c(N)nc54)[C@H](O)[C@@H]3O)[C@@H](O)[C@H]2O)c2nc(N)[nH]c(=O)c21` [m^7G(5′)p3(5′)G], in test [3], the “caps oriented in the reverse direction / reverse-orientation transcript” value was “one third to one half of the caps oriented in the reverse direction”.
